Experimental data taken from patent US20250082630A1, “METHODS OF TREATING BRAIN TUMOURS AND NEUROBLASTOMAS” (AstraZeneca AB, priority 2021, published 2025).
pIC50: −log10 of the molar value.

How the values were obtained:
PARP1 = PARP1 (Homo sapiens (Human), UniProt P09874); assay: PARP fluorescence anisotropy binding assay, PARP1
Method: Recombinant full length 6HIS tagged PARP1 protein was diluted to 6 nM with 50 mM Tris pH 8, 0.001% Triton X100, 10 mM MgCl2, 150 mM NaCl and incubated for four hours with an equivalent volume of 2 nM fluorescent probe diluted with 50 mM Tris pH 8, 0.001% Triton X100, 10 mM MgCl2, 150 mM NaCl. The final DMSO concentration of the probe was kept below 1% (v/v).
Fluorescence anisotropy of the probe when bound to the proteins was measured using a BMG Pherastar FSX® in the presence of test compounds or solvent control and the effect on anisotropy determined. % inhibition values for different test compound concentrations were calculated and fitted to a four parameter logistic plot in order to determine the IC50 value. Where necessary, the compound K, can be determined from the IC50 value using a Munson Rodbard equation defined in Anal Biochem. 1980 Sep.

PARP2 = PARP2 (Homo sapiens (Human), UniProt Q9UGN5); assay: PARP fluorescence anisotropy binding assay, PARP2
Method: Recombinant full length PARP2 protein was diluted to 6 nM with 50 mM Tris pH 8, 0.001% Triton X100, 10 mM MgCl2, 150 mM NaCl and incubated for four hours with an equivalent volume of 2 nM fluorescent probe diluted with 50 mM Tris pH 8, 0.001% Triton X100, 10 mM MgCl2, 150 mM NaCl. The final DMSO concentration of the probe was kept below 1% (v/v).
Fluorescence anisotropy of the probe when bound to the proteins was measured using a BMG Pherastar FSX® in the presence of test compounds or solvent control and the effect on anisotropy determined. % inhibition values for different test compound concentrations were calculated and fitted to a four parameter logistic plot in order to determine the IC50 value.

PARP2, sequence (Q9UGN5 whole entry): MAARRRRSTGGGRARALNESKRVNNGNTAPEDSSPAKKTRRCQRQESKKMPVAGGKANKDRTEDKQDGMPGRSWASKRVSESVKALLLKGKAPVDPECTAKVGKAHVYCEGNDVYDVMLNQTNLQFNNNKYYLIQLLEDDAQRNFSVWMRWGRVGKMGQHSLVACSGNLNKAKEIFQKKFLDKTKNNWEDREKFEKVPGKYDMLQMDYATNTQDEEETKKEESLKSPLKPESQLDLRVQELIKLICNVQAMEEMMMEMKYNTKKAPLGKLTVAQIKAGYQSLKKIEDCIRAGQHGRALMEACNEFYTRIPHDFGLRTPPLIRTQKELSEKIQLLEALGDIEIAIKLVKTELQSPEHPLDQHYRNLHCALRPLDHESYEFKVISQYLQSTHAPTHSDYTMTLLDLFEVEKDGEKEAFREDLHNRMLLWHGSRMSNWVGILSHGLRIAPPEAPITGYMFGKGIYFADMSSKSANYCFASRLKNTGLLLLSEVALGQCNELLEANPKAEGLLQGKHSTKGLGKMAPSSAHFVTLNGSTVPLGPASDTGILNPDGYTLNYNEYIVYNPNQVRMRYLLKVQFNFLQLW
PARP1, sequence (P09874 whole entry): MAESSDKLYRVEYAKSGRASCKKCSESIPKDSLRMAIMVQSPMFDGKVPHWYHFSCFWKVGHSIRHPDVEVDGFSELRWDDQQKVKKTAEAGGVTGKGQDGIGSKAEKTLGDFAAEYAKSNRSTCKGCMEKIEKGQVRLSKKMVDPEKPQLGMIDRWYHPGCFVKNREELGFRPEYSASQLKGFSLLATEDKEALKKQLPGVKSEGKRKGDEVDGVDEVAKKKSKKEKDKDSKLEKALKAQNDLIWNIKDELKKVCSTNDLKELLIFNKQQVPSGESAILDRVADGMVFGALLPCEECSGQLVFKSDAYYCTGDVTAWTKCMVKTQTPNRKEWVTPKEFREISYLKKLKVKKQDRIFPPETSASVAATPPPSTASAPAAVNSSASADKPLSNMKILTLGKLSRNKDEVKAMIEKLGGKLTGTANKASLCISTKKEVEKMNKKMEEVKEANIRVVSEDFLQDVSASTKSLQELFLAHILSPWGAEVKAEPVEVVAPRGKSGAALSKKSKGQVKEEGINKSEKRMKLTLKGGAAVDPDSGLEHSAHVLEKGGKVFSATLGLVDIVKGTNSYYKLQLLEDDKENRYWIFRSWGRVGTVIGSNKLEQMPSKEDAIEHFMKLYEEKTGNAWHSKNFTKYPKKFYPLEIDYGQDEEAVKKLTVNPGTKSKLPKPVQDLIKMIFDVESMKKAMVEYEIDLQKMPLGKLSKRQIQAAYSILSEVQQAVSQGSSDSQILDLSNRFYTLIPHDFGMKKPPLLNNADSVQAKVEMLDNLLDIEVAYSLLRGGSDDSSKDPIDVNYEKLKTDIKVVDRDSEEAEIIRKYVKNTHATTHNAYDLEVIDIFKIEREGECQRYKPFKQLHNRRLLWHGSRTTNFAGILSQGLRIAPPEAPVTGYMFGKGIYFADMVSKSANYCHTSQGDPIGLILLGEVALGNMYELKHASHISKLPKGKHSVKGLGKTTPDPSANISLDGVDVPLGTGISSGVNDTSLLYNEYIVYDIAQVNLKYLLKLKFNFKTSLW

Row | SMILES | pIC50 (PARP1) | pIC50 (PARP2)
1 | CNC(=O)c1ccc(N2CCN(Cc3ccc4nc(C)c(=O)[nH]c4c3C)CC2)cn1 [Example 2, 5-[4-[(2,5-dimethyl-3-oxo-4H-quinoxalin-6-yl)methyl]piperazin-1-yl]-N-methyl-pyridine-2-carboxamide] | 7.96 | 4.82
2 | Cc1nc2ccc(CN3CCN(c4ccc(C(N)=O)nc4F)CC3)c(C)c2[nH]c1=O [Example 5, 5-[4-[(2,5-dimethyl-3-oxo-4H-quinoxalin-6-yl)methyl]piperazin-1-yl]-6-fluoro-pyridine-2-carboxamide] | 8.30 | < 4.20
3 | Cc1nc(C(N)=O)ccc1N1CCN(Cc2ccc3nc(C)c(=O)[nH]c3c2F)CC1 [Example 6, 5-[4-[(5-fluoro-2-methyl-3-oxo-4H-quinoxalin-6-yl)methyl]piperazin-1-yl]-6-methyl-pyridine-2-carboxamide] | 8.40 | < 4.00
4 | Cc1nc(C(N)=O)ccc1N1CCN(Cc2ccc3nc(C)c(=O)[nH]c3c2C)CC1 [Example 7, 5-[4-[(2,5-dimethyl-3-oxo-4H-quinoxalin-6-yl)methyl]piperazin-1-yl]-6-methyl-pyridine-2-carboxamide] | 8.22 | 4.24
5 | CCc1nc2ccc(CN3CCN(c4ccc(C(=O)NC)nc4Cl)CC3)c(Cl)c2[nH]c1=O [Example 8, 6-chloro-5-[4-[(5-chloro-2-ethyl-3-oxo-4H-quinoxalin-6-yl)methyl]piperazin-1-yl]-N-methyl-pyridine-2-carboxamide] | 8.40 | 
6 | CCc1nc2ccc(CN3CCN(c4ccc(C(=O)NC)nc4)CC3)c(Cl)c2[nH]c1=O [Example 10, 5-[4-[(5-chloro-2-ethyl-3-oxo-4H-quinoxalin-6-yl)methyl]piperazin-1-yl]-N-methyl-pyridine-2-carboxamide] | 7.89 | 
7 | CCc1nc2ccc(CN3CCN(c4ccc(C(=O)NC)nc4C)CC3)c(Cl)c2[nH]c1=O [Example 11, 5-[4-[(5-chloro-2-ethyl-3-oxo-4H-quinoxalin-6-yl)methyl]piperazin-1-yl]-N,6-dimethyl-pyridine-2-carboxamide] | 8.52 | 
8 | CNC(=O)c1ccc(N2CCN(Cc3ccc4nc(C)c(=O)[nH]c4c3Cl)CC2)cn1 [Example 16, 5-[4-[(5-chloro-2-methyl-3-oxo-4H-quinoxalin-6-yl)methyl]piperazin-1-yl]-N-methyl-pyridine-2-carboxamide] | 8.00 | 
9 | CNC(=O)c1ccc(N2CCN(Cc3ccc4nc(C)c(=O)[nH]c4c3Cl)CC2)c(F)n1 [Example 17, 5-[4-[(5-chloro-2-methyl-3-oxo-4H-quinoxalin-6-yl)methyl]piperazin-1-yl]-6-fluoro-N-methyl-pyridine-2-carboxamide] | 8.22 | 
10 | Cc1nc2ccc(CN3CCN(c4ccc(C(N)=O)nc4F)CC3)c(F)c2[nH]c1=O [Example 22, 6-fluoro-5-[4-[(5-fluoro-2-methyl-3-oxo-4H-quinoxalin-6-yl)methyl]piperazin-1-yl]pyridine-2-carboxamide] | 8.22 | 4.06
11 | CCc1nc2ccc(CN3CCN(c4ccc(C(N)=O)nc4)CC3)c(F)c2[nH]c1=O [Example 25, 5-[4-[(2-ethyl-5-fluoro-3-oxo-4H-quinoxalin-6-yl)methyl]piperazin-1-yl]pyridine-2-carboxamide] | 8.30 | < 4.00
12 | CCc1nc2ccc(CN3CCN(c4ccc(C(N)=O)nc4C)CC3)c(F)c2[nH]c1=O [Example 26, 5-[4-[(2-ethyl-5-fluoro-3-oxo-4H-quinoxalin-6-yl)methyl]piperazin-1-yl]-6-methyl-pyridine-2-carboxamide] | 8.30 | 4.06
13 | CNC(=O)c1ccc(N2CCN(Cc3ccc4ncc(=O)[nH]c4c3F)CC2)cn1 [Example 33, 5-[4-[(5-fluoro-3-oxo-4H-quinoxalin-6-yl)methyl]piperazin-1-yl]-N-methyl-pyridine-2-carboxamide] | 6.78 | < 4.00
14 | CNC(=O)c1ccc(N2CCN(Cc3ccc4ncc(=O)[nH]c4c3F)CC2)c(C)n1 [Example 35, 5-[4-[(5-fluoro-3-oxo-4H-quinoxalin-6-yl)methyl]piperazin-1-yl]-N,6-dimethyl-pyridine-2-carboxamide] | 7.52 | < 4.00
15 | CNC(=O)c1ccc(N2CCN(Cc3ccc4ncc(=O)[nH]c4c3F)CC2)c(F)n1 [Example 36, 6-fluoro-5-[4-[(5-fluoro-3-oxo-4H-quinoxalin-6-yl)methyl]piperazin-1-yl]-N-methyl-pyridine-2-carboxamide] | 7.66 | < 4.00
16 | CCc1nc2ccc(CN3CCN(c4ccc(C(=O)NC)nc4C)CC3)c(C)c2[nH]c1=O [Example 42, 5-[4-[(2-ethyl-5-methyl-3-oxo-4H-quinoxalin-6-yl)methyl]piperazin-1-yl]-N,6-dimethyl-pyridine-2-carboxamide] | 8.30 | < 4.06
17 | CCc1nc2ccc(CN3CCN(c4ccc(C(=O)NC)nc4F)CC3)c(C)c2[nH]c1=O [Example 43, 5-[4-[(2-ethyl-5-methyl-3-oxo-4H-quinoxalin-6-yl)methyl]piperazin-1-yl]-6-fluoro-N-methyl-pyridine-2-carboxamide] | 8.30 | < 4.00
18 | CCc1nc2ccc(CN3CCN(c4ccc(C(=O)NC)nc4)CC3)c(C)c2[nH]c1=O [Example 44, 5-[4-[(2-ethyl-5-methyl-3-oxo-4H-quinoxalin-6-yl)methyl]piperazin-1-yl]-N-methyl-pyridine-2-carboxamide] | 6.89 | < 4.00
19 | CCNC(=O)c1ccc(N2CCN(Cc3ccc4nc(C)c(=O)[nH]c4c3F)CC2)c(C)n1 [Example 46, N-ethyl-5-[4-[(5-fluoro-2-methyl-3-oxo-4H-quinoxalin-6-yl)methyl]piperazin-1-yl]-6-methyl-pyridine-2-carboxamide] | 8.00 | < 4.00
20 | CNC(=O)c1ccc(N2CCN(Cc3ccc4nc(C(F)(F)F)c(=O)[nH]c4c3F)CC2)cn1 [Example 50, 5-[4-[[5-fluoro-3-oxo-2-(trifluoromethyl)-4H-quinoxalin-6-yl]methyl]piperazin-1-yl]-N-methyl-pyridine-2-carboxamide] | 7.22 | 4.46
21 | CNC(=O)c1ccc(N2CCN(Cc3ccc4nc(C(C)C)c(=O)[nH]c4c3F)CC2)c(F)n1 [Example 51, 6-fluoro-5-[4-[(5-fluoro-2-isopropyl-3-oxo-4H-quinoxalin-6-yl)methyl]piperazin-1-yl]-N-methyl-pyridine-2-carboxamide] | 8.22 | 5.92
22 | CNC(=O)c1ccc(N2CCN(Cc3ccc4nc(C(C)C)c(=O)[nH]c4c3F)CC2)c(C)n1 [Example 52, 5-[4-[(5-fluoro-2-isopropyl-3-oxo-4H-quinoxalin-6-yl)methyl]piperazin-1-yl]-N,6-dimethyl-pyridine-2-carboxamide] | 7.07 | 5.42
23 | CNC(=O)c1ccc(N2CCN(Cc3ccc4nc(C(C)C)c(=O)[nH]c4c3F)CC2)cn1 [Example 53, 5-[4-[(5-fluoro-2-isopropyl-3-oxo-4H-quinoxalin-6-yl)methyl]piperazin-1-yl]-N-methyl-pyridine-2-carboxamide] | 7.59 | < 4.00
24 | CNC(=O)c1ccc(N2CCN(Cc3ccc4nc(C5CC5)c(=O)[nH]c4c3F)CC2)c(F)n1 [Example 54, 5-[4-[(2-cyclopropyl-5-fluoro-3-oxo-4H-quinoxalin-6-yl)methyl]piperazin-1-yl]-6-fluoro-N-methyl-pyridine-2-carboxamide] | 6.95 | < 4.00
25 | CNC(=O)c1ccc(N2CCN(Cc3ccc4nc(C5CC5)c(=O)[nH]c4c3F)CC2)c(C)n1 [Example 55, 5-[4-[(2-cyclopropyl-5-fluoro-3-oxo-4H-quinoxalin-6-yl)methyl]piperazin-1-yl]-N,6-dimethyl-pyridine-2-carboxamide] | 8.30 | < 4.00
26 | CNC(=O)c1ccc(N2CCN(Cc3ccc4nc(C5CC5)c(=O)[nH]c4c3F)CC2)cn1 [Example 56, 5-[4-[(2-cyclopropyl-5-fluoro-3-oxo-4H-quinoxalin-6-yl)methyl]piperazin-1-yl]-N-methyl-pyridine-2-carboxamide] | 8.10 | < 4.00
27 | CNC(=O)c1ccc(N2CCN(Cc3ccc4nc(OC)c(=O)[nH]c4c3C)CC2)c(C)n1 [Example 57, 5-[4-[(2-methoxy-5-methyl-3-oxo-4H-quinoxalin-6-yl)methyl]piperazin-1-yl]-N,6-dimethyl-pyridine-2-carboxamide] | 7.96 | < 4.00
28 | CNC(=O)c1ccc(N2CCN(Cc3ccc4nc(OC)c(=O)[nH]c4c3C)CC2)c(C(F)F)n1 [Example 59, 6-(difluoromethyl)-5-[4-[(2-methoxy-5-methyl-3-oxo-4H-quinoxalin-6-yl)methyl]piperazin-1-yl]-N-methyl-pyridine-2-carboxamide] | 8.22 | 5.68
29 | CNC(=O)c1ccc(N2CCN(Cc3ccc4nc(C)c(=O)[nH]c4c3C)CC2)c(C(F)F)n1 [Example 60, 6-(difluoromethyl)-5-[4-[(2,5-dimethyl-3-oxo-4H-quinoxalin-6-yl)methyl]piperazin-1-yl]-N-methyl-pyridine-2-carboxamide] | 7.64 | < 4.00
